Data on five compounds can be found in patent publication US20080031968A1, “Methods for increasing cellular energy expenditure” (priority 2005, published 2008).

For one data set, the system named is C57BL/6J mice. Kind of data set: LXR agonist-induced lipogenesis in C57BL/6J mice with or without CA. The format is in vivo, mouse. The conditions noted are these: C57BL/6J mice, chow diet, gavage 30 mg/kg. Here is the method:
Male C57BL/6J, KK-Ay, and ob/ob (C57BL/6J background) mice, 6-10 weeks of age, were obtained from Elevage Janvier (Le Genest St. Isle, France), CLEA Japan Inc. (Tokyo, Japan), and The Jackson Laboratory (Bar Harbor, Me., USA), respectively. All mice were maintained in a temperature-controlled (23° C.) facility with a 12-hour light/dark cycle and were given free access to food and water. The study protocols were approved by the institutional review boards. The body weight and food intake were measured every second day. The control and high-fat diet was obtained from UAR (Villemoisson sur Orge, France). […] The mice were fasted 4 hours before harvesting blood for subsequent lipid measurements, and tissues for RNA isolation, lipid measurements, and histology.
Mice were gavaged with the LXR agonist T0901317 or vehicle, and the different diets were continued for one more day, after which the mice were sacrificed.

A further data set concerns BAT cells. In words: Isolated mouse BAT cells, D2 mRNA, D2 activity and cAMP. Format: cell-based. As for the experimental part:
An OGTT was performed in animals that were fasted overnight. Glucose was administered by gavage at a dose of 2 g/kg. An IPITT was done in 4 h fasted animals. Insulin was injected at a dose of 0.75 U/kg. Glucose quantification was done with the Maxi Kit Glucometer 4 (Bayer Diagnostic, Puteaux, France) or Glucose RTU (bioMérieux Inc., Marcy l'Etoile, France). Plasma insulin concentrations were measured using ELISA (Cristal Chem Inc., Downers Grove, Ill.). Nonesterified fatty acids, triglycerides, ketone bodies, BA and total cholesterol were determined by enzymatic assays (Roche, Mannheim, Germany). cAMP was measured using the cAMP-Screen system (Applied Biosystems, Bedford, Mass.).

For data set [1], the target named is T1, TGR5 (Homo sapiens, UniProt Q8TDU6).
T1 construct: expressed in transfected cells
T1 sequence (Q8TDU6 1-330): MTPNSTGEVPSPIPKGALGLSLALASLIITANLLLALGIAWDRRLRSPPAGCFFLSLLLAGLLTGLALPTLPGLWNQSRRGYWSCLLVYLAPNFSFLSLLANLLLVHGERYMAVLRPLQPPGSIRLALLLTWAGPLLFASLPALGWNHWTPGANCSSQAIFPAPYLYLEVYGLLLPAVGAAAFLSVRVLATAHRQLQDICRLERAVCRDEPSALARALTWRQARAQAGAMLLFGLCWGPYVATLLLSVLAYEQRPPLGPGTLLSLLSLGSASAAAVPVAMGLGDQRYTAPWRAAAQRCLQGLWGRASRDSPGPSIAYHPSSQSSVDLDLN
In words: CHO cells transiently expressing TGR5 and pCRE-Luc. Format: cell-based. The conditions noted are these: different concentrations, almost as much cAMP accumulation as with 10 μM forskolin. The text has this:
These two steroids constitute about 2 percent by weight of gum guggul.
(In general: Cyclic AMP is a second messenger, typically raised through Gs and lowered through Gi signalling.)

The subject of data set [2] is HSMM. Kind of data set: Oxygen consumption and extracellular acidification rate in HSMM. The conditions noted are these: for cellular oxygen consumption: 48 or 72 hours; for extracellular acidification rate: after 72 hours of treatment.
The target of data set [3] is T1, TGR5. Kind of data set: cAMP response element (CRE)-luciferase reporter assay with TGR5. The conditions noted are these: cells co-transfected with TGR5 expression plasmid and CRE-driven luciferase reporter. Format: cell-based. The text has this: Since a synthetic FXRα agonist was unable to phenocopy the effects of BAs on energy expenditure, we focused our attention on FXRα-independent signaling events stimulated by BAs. […] We used a cAMP response element (CRE)-luciferase reporter assay to confirm that TGR5 is a BA receptor.
We used quantitative RT-PCR to measure the expression of D2 and TGR5 mRNAs in selected mouse tissues.

The subject of data set [4] is HSMM. In words: cAMP levels in human skeletal muscle myoblasts. Format: cell-based. The conditions noted are these: 1 mM IBMX, 30 minutes.
Method: HSMM were obtained from Cambrex (Walkersville, Md.) and were cultured according to the suppliers instructions. […] For the cAMP measurements, cells were preincubated 12 h in Opti-MEM (Life Technologies, Cergy Pontoise, France), supplemented with 1 mM IBMX. Then medium was changed and cells were incubated for another 1 h in Opti-MEM with 1 mM IBMX, after which the medium was replaced for Opti-MEM with 1 mM IBMX and the indicated compounds. After 30 minutes the cells were lysed for cAMP analysis.
Data set [5] concerns HSMM. In words: D2 activity in human skeletal muscle myoblasts. The format is cell-based. As to conditions: 16 h incubation. Here is the method:
HSMM were obtained from Cambrex (Walkersville, Md.) and were cultured according to the suppliers instructions. D2 activity measurements were performed after a 16 h incubation with the indicated compounds. For the cAMP measurements, cells were preincubated 12 h in Opti-MEM (Life Technologies, Cergy Pontoise, France), supplemented with 1 mM IBMX. Then medium was changed and cells were incubated for another 1 h in Opti-MEM with 1 mM IBMX, after which the medium was replaced for Opti-MEM with 1 mM IBMX and the indicated compounds. After 30 minutes the cells were lysed for cAMP analysis.

In data set [6] the test system is humans. The conditions noted are these: cited from earlier work.
The subject of data set [7] is humans. As to conditions: treatment of cholesterol gallstones; cited from earlier work.
A further data set deals with BAT of C57BL/6J mice. Kind of data set: BAT gene expression by microarray and Q-RT-PCR. The format is in vivo, mouse. The conditions noted are these: high fat diet mixed with CA or CDCA for 9 days.
A further data set has as its system mouse SREBP-1c promoter. In words: SREBP-1c promoter luciferase reporter assay in McA-RH7777 cells. The format is cell-based. As to conditions: McA-RH7777 rat hepatoma cells, LXRα transfection and/or LXR and RXR agonists. (In general: A reporter such as luciferase makes a cellular process visible.)
The subject of data set [8] is mouse primary hepatocytes. In words: Endogenous SREBP-1c and target gene expression in mouse primary hepatocytes. The format is cell-based. As for the experimental part: Hepatocytes were isolated from wild-type male mice 8-10 weeks old. Animals were anesthetized with CO2 and livers were perfused with 40 ml Liver Perfusion Medium (Invitrogen) followed by 30 ml Liver Digestion Medium (Invitrogen), both at a flow rate of 5 ml/min. Isolated hepatocytes were resuspended in DMEM supplemented with 20% (v/v) FCS, 100 units/ml penicillin, and 100 units/ml streptomycin, and placed in plates coated with collagen IV at a density of 1×10^5 cells/cm^2. After a 4-hour incubation at 37° C. in an atmosphere of 5% CO2, the medium was changed to DMEM supplemented with 10% (v/v) FCS, 100 units/ml penicillin, 100 units/ml streptomycin, 0.5 μM dexamethasone (Sigma-Aldrich), and 0.4 μM insulin (Sigma-Aldrich). After 16 hours, the medium was changed into medium supplemented with CDCA and ligands for LXR and RXR. After an additional 18-hour incubation, cells were harvested for RNA isolation.
Total RNA was extracted from frozen tissue samples or cells using the RNeasy kit (QIAGEN, Courtaboeuf, France). cDNA was synthesized from total RNA with the SuperScript First-Strand Synthesis System (Invitrogen) and random hexamer primers. The real-time PCR measurement of individual cDNAs was performed using SYBR green dye to measure duplex DNA formation with the LightCycler System (Roche Diagnostics, Meylan, France). The sequences of the primer sets used are available online at http://www-igbmc.ustrasbg.fr/Departments/Dep_V/Dep_VA/Publi/Paper.html.

Method for BAT of C57BL/6J mice: For microarray analysis, RNA was isolated from BAT using the RNeasy mini kit (QIAGEN, Courtaboeuf, France). Equal amounts of RNA from mice in each group were pooled (n=3 or 4 mice) and used for cDNA synthesis. After second-strand cDNA synthesis (Life Technologies, Cergy Pontoise, France), in vitro transcription was performed with biotinylated UTP and CTP (Enzo Diagnostics, Farmingdale, N.Y.). Fragmented cRNA samples were hybridized to the Affymetrix MOE430A microarray. The raw data was analyzed using the Microarray Suite Software version 5.0 (MAS5.0, Affymetrix, Santa Clara, Calif.).
Method for mouse SREBP-1c promoter: The LXR response elements in pSREBP-1c324-Luc were mutated for promoter analysis using the Quick Change Site-Directed Mutagenesis Kit (Stratagene, La Jolla, Calif., USA).
The rat hepatoma cell line McA-RH7777 was obtained from ATCC (Manassas, Va., USA). […] Transfections were performed in 96-well plates using Lipofectamine 2000 (Invitrogen, Cergy Pontoise, France). Each well contained 64 ng luciferase reporter and 4 ng of β-galactosidase expression plasmid. We transfected 16 ng RXRα, 16 ng LXRα, 16 ng LRH-1, 32 ng SHP expression plasmids, or the corresponding empty expression vectors. After 6 hours of incubation with the DNA-lipofectamine complexes, the transfection medium was exchanged for medium with or without the indicated ligands. Ligands for LXR and RXR were dissolved in ethanol or DMSO and added to the cells in DMEM supplemented with 10% lipoprotein-deficient serum. To suppress SREBP-1c activation by processing, leading to feed-forward induction of SREBP-1c expression, the medium used for the SREBP-1c promoter study was also supplemented with 10 μg/ml cholesterol and 1 μg/ml 25-hydroxycholesterol. Luciferase measurements were normalized to β-galactosidase activity.

`O=S(=O)(c1ccccc1)N(CC(F)(F)F)c1ccc(C(O)(C(F)(F)F)C(F)(F)F)cc1` [T0901317]: the “liver weight and serum TGs” value with C57BL/6J mice is “induction”.

With `C[C@H](CCC(=O)NCCS(=O)(=O)O)[C@H]1CC[C@H]2[C@@H]3[C@H](O)C[C@@H]4C[C@H](O)CC[C@]4(C)[C@H]3C[C@H](O)[C@]12C` [TCA, taurocholic acid], in the data set with BAT cells (BAT cells), the cAMP levels entry is given as “most effective”. Also, the “D2 mRNA and activity” value with BAT cells (BAT cells from mice fed control or high fat diet) was “dose dependently increased”. Moreover, the reporter activity result at TGR5 [1] was “dramatically increased”. In the data set with HSMM [2], the cellular oxygen consumption result is on record as “elevated” and the extracellular acidification rate result is given as “increase”. The luciferase expression result on TGR5 [3] was “increased luciferase expression in a dose-dependent manner”. Moreover, the cAMP levels result with HSMM [4] is on record as “increased cAMP levels in a dose-dependant fashion”. For the same compound, in the data set with HSMM [5], the D2 activity entry was “significant and dose dependent induction”.

With `C[C@H](CCC(=O)O)[C@H]1CC[C@H]2[C@@H]3[C@H](O)C[C@@H]4C[C@H](O)CC[C@]4(C)[C@H]3CC[C@]12C` [CDCA, chenodeoxycholic acid], in the data set on humans [6], the hepatotoxicity result is on record as “significant hepatotoxicity”. Further, the LDL cholesterol entry with humans [6] (decrease in LDL-R activity) was “raise LDL cholesterol”. Moreover, the hypertriglyceridemia result with humans [7] is “reduce hypertriglyceridemia”. Moreover, in the data set on BAT of C57BL/6J mice, the “genes involved in control of energy expenditure incl. D2 in BAT (microarray)” value is listed as “upregulated”. In addition, in the data set with mouse SREBP-1c promoter, the “increase of SREBP-1c promoter activity” value is listed as “attenuated”. The “expression of lipogenic target genes of SREBP-1c (SCD-1, AceCS, ME)” value in [8] (RXR and LXR ligands plus CDCA) is “decreased likewise”. In addition, the SHP expression result in [8] (addition of CDCA) is reported as “increased”. Further, the “endogenous SREBP-1c expression” value in data set [8] (induced by RXR and LXR ligands, increasing amounts of CDCA, 18-hour incubation) is listed as “decreased dose-dependently”. In addition, in the data set with HSMM [4], the cAMP levels entry is listed as “increased cAMP levels in a dose-dependant fashion”.

Turning to `C[C@H](CCC(=O)NCCS(=O)(=O)O)[C@H]1CC[C@H]2[C@@H]3[C@H](O)C[C@@H]4C[C@H](O)CC[C@]4(C)[C@H]3CC[C@]12C` [TCDCA, tauroCDCA], the cAMP levels result in the data set on HSMM [4] is “did not increase”.

On to `N[C@@H](Cc1cc(I)c(Oc2ccc(O)c(I)c2)c(I)c1)C(=O)O` [T3, 3,5,3′-triiodothyronine], for which, in the data set with HSMM [2], the cellular oxygen consumption result is recorded as “elevated” and the extracellular acidification rate entry is “increase”.
